Laboratory results taken from PMC10186366 (ACS Pharmacology & Translational Science, 2023).
Several values for one entry are separate records, joined by “and”; a condition that tells them apart may be missing. Identical values can stand only once.

Experiments:
[1] = test system: KB tumor cells; test: Metabolite rescue of growth inhibition in KB cells; format: cell-based, human; conditions: glycine- and nucleoside-free media; for Protection from growth inhibition by adenosine: inhibitor up to 1000 nM, 60 μM adenosine alone
Description: Upper panel: schematic of C1 metabolism. Undefined abbreviations include the following: DHF, dihydrofolate; THF, tetrahydrofolate; FAICAR, formyl 5-aminoimidazole-4-carboxamide ribonucleotide; fGAR, formyl GAR; and 5,10-meTHF, 5,10-methylene tetrahydrofolate. Lower panels: KB cells were plated (4000 cells/well) in glycine-, nucleoside-, and folate-free RPMI 1640 medium with 10% dialyzed fetal bovine serum, antibiotics, L-glutamine, and 2 nM leucovorin over a range of inhibitor concentrations in the presence of adenosine (60 μM), glycine (160 μM), thymidine (10 μM), or AICA (320 μM). As shown, combined glycine plus adenosine or AICA was also tested to identify potential mitochondrial C1 targeting.[45] Cell proliferation was assayed with a fluorescence-based assay.[26] Data are representative of at least triplicate experiments (presented as mean values plus/minus standard errors). Methods are described in the Experimental Section, and additional metabolite rescue data for 4, 5, and 8–11 are presented in Figure S3 (Supporting Information).
Metabolite “rescue” experiments have been used to identify targeted pathways for novel antifolate inhibitors including de novo purine nucleotide and thymidylate biosynthesis (protection by adenosine and thymidine, respectively)[25]−[27],[29],[30],[32],[43],[45]−[47] and mitochondrial C1 metabolism (protection by glycine and adenosine).[45] To gain insights into the targeted pathways that contribute to the loss of KB tumor cell proliferation upon treatment with compounds 3–9, we tested the reversal of growth inhibition by the active compounds in Table 1 (up to 1000 nM) in glycine- and nucleoside-free media in the presence of 60 μM adenosine, 160 μM glycine, or 10 μM thymidine alone or with combined adenosine and glycine. The use of glycine- and nucleoside-free media for these experiments expands the ability to identify causal intracellular targets (including previously unrecognized mitochondrial targets[45]) that can be confirmed by targeted metabolomics and direct in vitro assays (below). […] The results of these experiments are shown in Figure 7 (lower panel) and in Figure S3 (Supporting Information).
AICA circumvents the first folate-dependent enzyme, GARFTase, and is directly metabolized to ZMP (AICAR), thus providing a substrate for AICARFTase[26],[32],[46] (Figure 7, upper panel). This distinguishes primary inhibition at GARFTase (protection by AICA) versus AICARFTase (incomplete protection by AICA) for inhibitors of de novo purine biosynthesis.[25]
Additional proliferation assays with metabolite rescue used KB cells to identify the targeted pathway and enzyme(s) in folate- and glycine-free RPMI1640, DFBS, 2 mM glutamine, and antibiotics. […] These assays have been previously described.[25],[26],[45]

[2] = test system: PC43-10 CHO cells (expresses only human RFC); conditions: 96 h; mean (standard error); previously published; cited from earlier work
[3] = test system: RT16 CHO cells (expresses only human FRα); conditions: 96 h; mean (standard error); previously published; cited from earlier work
[4] = test system: D4 CHO cells (expresses only human FRβ); conditions: 96 h; mean (standard error); previously published; cited from earlier work
[5] = test system: KB human tumor cells (RFC/FRα/PCFT); conditions: 96 h, no folic acid; mean (standard error); previously published; cited from earlier work
[6] = target: T1, SHMT2 (Homo sapiens, UniProt P34897); test: SHMT2 coupled enzyme assay with MTHFD2 (NADH production); format: biochemical; conditions: mean (standard error), at least three replicate assays
T1 construct: N-terminal His6-tagged SHMT2 (residues 30–504); made in house; host or cells: E. coli Rosetta (DE3)pLysS
T1 sequence (P34897 30-504): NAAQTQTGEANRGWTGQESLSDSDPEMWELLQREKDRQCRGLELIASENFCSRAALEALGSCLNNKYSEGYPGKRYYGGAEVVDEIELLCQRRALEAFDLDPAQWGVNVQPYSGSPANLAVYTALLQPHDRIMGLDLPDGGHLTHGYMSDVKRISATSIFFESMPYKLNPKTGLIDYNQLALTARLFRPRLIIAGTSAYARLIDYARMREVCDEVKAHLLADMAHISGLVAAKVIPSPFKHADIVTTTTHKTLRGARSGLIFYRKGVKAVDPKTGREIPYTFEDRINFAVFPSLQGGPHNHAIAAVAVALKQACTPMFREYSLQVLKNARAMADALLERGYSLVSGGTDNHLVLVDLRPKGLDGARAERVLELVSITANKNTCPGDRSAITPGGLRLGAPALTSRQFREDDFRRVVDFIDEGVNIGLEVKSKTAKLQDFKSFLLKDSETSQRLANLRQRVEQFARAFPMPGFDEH
Description: N-terminal His6-tagged SHMT2 (residues 30–504) and full-length MTHFD2 were expressed in Rosetta (DE3)pLysS cells. One liter cultures were grown in LB media with 100 mg/mL ampicillin and 35 mg/mL chloramphenicol at 37 °C until the OD600 was 0.6. […] The cells were pelleted and resuspended in 25 mL of 25 mM Tris–HCl, pH 7.5, 300 mM NaCl, and 5 mM β-Me. To lyse the cells, 40 mg lysozyme and 8 U DNAse I were added followed by incubation on ice for 15 min. The cells were then lysed by emulsification.
Purification of His-SHMT2 and His-MTHFD2 was by Ni-affinity chromatography (above). For further purification of His-SHMT2, pyridoxal 5′-phosphate (PLP) was added (3-fold excess to His-SHMT2) followed by incubation for 16–18 h. Further purification was by size exclusion chromatography on a Superdex 200 16/60 column (GE Healthcare) with monitoring of PLP absorbance at 435 nm. Purified His-SHMT2 was stored in 20 mM sodium phosphate buffer, pH 7.5, 100 mM potassium chloride, 0.2 mM EDTA, and 5 mM β-ME. To further purify MTHFD2, size exclusion chromatography was performed using a Superdex 200 16/60 column (GE Healthcare). His-MTHFD2 was stored in 50 mM Tris–HCl buffer, pH 7.5, 250 mM sodium chloride, 5% glycerol, and 0.5 mM tris(2-chloroethyl) phosphate (TCEP).
Kinetic measurements were recorded in triplicate in a UV-transparent 96-well plate (Costar 3635) at 298 nm using a BioTek Synergy Neo2 Plate Reader. Initial slopes were graphed against inhibitor concentrations and fit to a three-parameter nonlinear regression to calculate IC50 values for each compound (GraphPad Prism 8.0). […] SHMT2 activity was assayed by monitoring NADH production with a coupled assay including 500 nM His-SHMT2 and 10 μM His-MTHFD2 (1:200 molar ratio His-SHMT2/His-MTHFD2). NADH production by His-MTHFD2 was monitored by fluorescence at 470 nm with excitation at 360 nm (Synergy Neo2 Biotek plate reader). Inhibition constants (Ki’s) were calculated from the IC50 values using the equation Ki = IC50/([S]/KM + 1) and the Km and substrate concentration for THF. The THF concentration in the reaction was 50 mM.

[7] = test system: SHMT2 (mitochondrial C1 metabolism) in KB tumor cells; test: Targeted metabolomics flux analysis with [2,3,3-2H]serine in KB cells; format: cell-based, human; conditions: 0.1 μM compound, 250 μM [2,3,3-2H]serine, versus vehicle-treated cells
Description: Serine is catabolized in the mitochondria via SHMT2, which converts serine to glycine and 5,10-methylene THF, the latter of which is metabolized by MTHFD2 to 10-CHOTHF and by MTHFD1L to formate (Figure 7).
The cells were processed for liquid chromatography–mass spectrometry (LC–MS) analysis of total serine and glycine, and deuterated serine (M + 3, M + 2, M + 1, and M + 0 serine, where M + n represents species with n deuterium atoms) and glycine (M + 1 and M + 0) isotopomers. The results are shown in Figure 8 and are compared to those for control (vehicle-treated) cells (labeled “N/A”).
Figure 8 Metabolomics flux analysis with [2,3,3-^2H]serine to assay mitochondrial C1 metabolism via SHMT2. (A) A schematic of [2,3,3-^2H]serine metabolism is shown. Heavy (^2H) atoms in serine (colored circles) are metabolized via SHMT2 initially followed by MTHFD2 and MTHFD1L to formate. (B, C) Total serine and glycine and the distribution of the serine (M + n, n = 0−3) and glycine (n = 0 or 1) isotopomers are shown. The loss of M + 3 serine corresponding to the metabolism of [2,3,3-^2H]serine to M + 1 glycine is a direct measure of SHMT2 activity in the cells.[45] Experimental methods are described in the Experimental Section. Results are shown as mean values plus/minus standard deviations (n = 3). *P < 0.05; **P < 0.01. […]
KB cells (1 × 10[6]) were seeded in each of three 60 mm dishes in folate-, serine-, and glycine-free RPMI1640 supplemented with 10% DFBS, 1% penicillin/streptomycin, 2 mM L-glutamine, 285 μM serine, 130 μM glycine, and 2 nM leucovorin. […] The targeted metabolites were quantitatively determined using the AB Sciex QTRAP 6500 LC–MS/MS system. […] Isotopomers were detected using multiple reaction monitoring (MRM) at the positive ionization mode. […] Absolute metabolite concentrations were calculated from calibration curves and then normalized to total protein concentrations measured from the postextraction pellet (solubilized in 0.5 N NaOH) using the Folin-phenol method.[53] […] To correct for multiple comparisons, adjusted p values were determined using Holm’s method.

[8] = target: T2, human GARFTase (Homo sapiens, UniProt P22102); parameters: method as in PMID 33773393, PMID 31289137, PMID 27439469; conditions: mean (standard error); previously reported; cited from earlier work
T2 construct: GARFTase (formyltransferase domain; residues 808–1010); made in house; host or cells: E. coli Rosetta (DE3)pLysS
T2 sequence (P22102 808-1010): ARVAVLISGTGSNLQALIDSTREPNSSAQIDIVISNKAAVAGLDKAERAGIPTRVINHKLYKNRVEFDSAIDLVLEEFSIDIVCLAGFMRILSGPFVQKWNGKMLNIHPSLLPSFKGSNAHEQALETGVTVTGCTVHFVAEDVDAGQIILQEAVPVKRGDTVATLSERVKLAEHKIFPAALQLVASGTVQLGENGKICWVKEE

SMILES	Protection from growth inhibition by adenosine [1]	IC50 [2] [nM]	IC50 [3]	IC50 [4] [nM]	IC50 [5] [nM]	Ki [6] [nM]	Protection from growth inhibition by glycine plus adenosine over adenosine alone ([1]; 160 μM glycine combined with 60 μM adenosine)	Increase in M + 3 serine [7]	Ki [8] [nM]
Nc1nc2sc(CCCc3csc(C(=O)N[C@@H](CCC(=O)O)C(=O)O)c3)cc2c(=O)[nH]1 [Compound 10]	completely protective	> 1000	0.4 nM and 0.44 nM	0.24	1.48				
Nc1nc2sc(CCCCc3ccc(C(=O)N[C@@H](CCC(=O)O)C(=O)O)cc3)cc2c(=O)[nH]1 [Compound 2]		> 1000	9 nM	20		12400	substantially enhanced and was complete	2–4 fold	
Nc1nc2[nH]cc(CCc3ccc(C(=O)N[C@@H](CCC(=O)O)C(=O)O)cc3)c2c(=O)[nH]1 [PMX, reference compound]			42 nM	60					
Nc1nc2sc(CCCCc3csc(C(=O)N[C@@H](CCC(=O)O)C(=O)O)c3)cc2c(=O)[nH]1 [Compound 11]	completely protective	> 1000	5.62 nM	5.63	6.85				> 150000
